Tests used:
PC-12 [1] = test: Selectivity index, ratio of Ki for sigma1 receptor in Sprague-Dawley rat cortical membranes to Ki for rat VAChT expressed in PC12 cell membranes; type: cell-based
[2] = target: Sigma non-opioid intracellular receptor 1 (Rattus norvegicus, UniProt Q9R0C9); test: Displacement of […] from sigma1 receptor in Sprague-Dawley rat cortical membranes incubated for 2 hrs by liquid scintillation counting based competitive radioligand binding assay; details: read-out: Ki(app)
[3] = target: T1, Vesicular acetylcholine transporter (Rattus norvegicus, UniProt Q62666); test: Displacement of (-)-[3H]vesamicol from rat VAChT expressed in PC12 cell membranes incubated for 2 hrs by liquid scintillation counting based competitive radioligand binding assay; design: species or system PC-12; details: read-out: Ki(app)
T1 sequence (Q62666 whole entry): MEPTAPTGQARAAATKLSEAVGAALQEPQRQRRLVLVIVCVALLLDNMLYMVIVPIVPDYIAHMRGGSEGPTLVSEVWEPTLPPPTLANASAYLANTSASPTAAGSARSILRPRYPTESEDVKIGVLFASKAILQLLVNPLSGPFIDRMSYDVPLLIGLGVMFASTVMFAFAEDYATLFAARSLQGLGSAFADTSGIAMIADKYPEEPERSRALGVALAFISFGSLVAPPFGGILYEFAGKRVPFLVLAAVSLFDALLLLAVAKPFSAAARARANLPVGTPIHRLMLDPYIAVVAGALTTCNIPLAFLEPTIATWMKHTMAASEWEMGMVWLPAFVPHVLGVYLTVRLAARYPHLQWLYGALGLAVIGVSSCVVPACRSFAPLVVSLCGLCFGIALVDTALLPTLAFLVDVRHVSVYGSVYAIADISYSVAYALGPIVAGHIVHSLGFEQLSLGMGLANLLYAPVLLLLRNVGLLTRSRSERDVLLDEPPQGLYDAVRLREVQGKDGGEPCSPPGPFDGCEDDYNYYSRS

[4] = Displacement of [3H]DTG from sigma2 receptor in Sprague-Dawley rat liver membranes incubated for 2 hrs in presence of dextrallorphan by liquid scintillation counting based competitive radioligand binding assay; details: read-out: Ki(app)
PC-12 [5] = test: Selectivity index, ratio of Ki for sigma2 receptor in Sprague-Dawley rat liver membranes to Ki for rat VAChT expressed in PC12 cell membranes; type: cell-based
[6] = target: T2, Vesicular acetylcholine transporter (Torpedo californica, UniProt P81721); test: Displacement of (-)-[3H]vesamicol from VAChT in Torpedo californica electric organ synaptic vesicles; design: species or system Tetronarce californica; details: read-out: Ki(app)
T2 sequence (P81721 whole entry): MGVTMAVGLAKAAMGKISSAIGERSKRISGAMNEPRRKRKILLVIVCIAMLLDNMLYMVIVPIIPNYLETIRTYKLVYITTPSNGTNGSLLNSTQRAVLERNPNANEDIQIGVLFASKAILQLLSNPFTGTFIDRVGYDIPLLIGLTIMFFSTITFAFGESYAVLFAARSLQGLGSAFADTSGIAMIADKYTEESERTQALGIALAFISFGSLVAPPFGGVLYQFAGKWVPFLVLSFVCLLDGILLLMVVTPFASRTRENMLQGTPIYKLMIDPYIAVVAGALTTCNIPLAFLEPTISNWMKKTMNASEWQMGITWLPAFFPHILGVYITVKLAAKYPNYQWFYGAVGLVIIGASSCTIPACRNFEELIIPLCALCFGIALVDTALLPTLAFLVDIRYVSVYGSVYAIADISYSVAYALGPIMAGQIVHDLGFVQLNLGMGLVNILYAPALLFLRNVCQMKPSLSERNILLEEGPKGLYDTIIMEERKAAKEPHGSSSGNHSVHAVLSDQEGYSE

Sigma non-opioid intracellular receptor 1, sequence (Q9R0C9 whole entry): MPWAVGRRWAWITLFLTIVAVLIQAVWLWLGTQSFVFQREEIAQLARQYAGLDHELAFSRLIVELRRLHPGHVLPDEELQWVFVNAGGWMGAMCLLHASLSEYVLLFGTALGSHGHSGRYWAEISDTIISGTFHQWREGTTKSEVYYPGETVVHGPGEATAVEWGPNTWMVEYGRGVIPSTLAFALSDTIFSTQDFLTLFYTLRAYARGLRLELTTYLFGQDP

Compound: O=C(c1ccc(F)cc1)C1CCN([C@@H]2CCCC[C@H]2O)CC1 (racemic)
- Ratio Ki (PC-12 [1]): < 0.1
- Ki [2]: 60.9 nM
- Ki [3]: 3240 nM
- Ki [4]: 730 nM
- Ratio Ki (PC-12 [5]): 0.2

Compound: O[C@@H]1CC=CC[C@H]1N1CCC(c2ccccc2)CC1 (racemic)
- Ki [6]: 0.34 nM
- Ratio Ki (PC-12 [1]): 0.3
- Ki [2]: 5.8 nM
- Ki [3]: 18.4 nM
- Ki [4]: 77.1 nM
- Ratio Ki (PC-12 [5]): 4.2

Compound: O=C(Nc1cccc2c1C[C@@H](N1CCC(c3ccccc3)CC1)[C@H](O)C2)c1ccc(F)cc1 (racemic)
- Ratio Ki (PC-12 [1]): 41.2
- Ki [2]: 6430 nM
- Ki [3]: 156 nM
- Ki [4]: 3620 nM
- Ratio Ki (PC-12 [5]): 23.2

Compound: O=C(Nc1cccc2c1C[C@@H](N1CCC(Cc3ccccc3)CC1)[C@H](O)C2)c1ccc(F)cc1 (racemic)
- Ratio Ki (PC-12 [1]): 3.4
- Ki [2]: 1770 nM
- Ki [3]: 527 nM
- Ki [4]: 2080 nM
- Ratio Ki (PC-12 [5]): 3.9

Compound: O=C(Nc1cccc2c1C[C@@H](O)[C@H](N1CCC(c3ccccc3)CC1)C2)c1ccc(F)cc1 (racemic)
- Ratio Ki (PC-12 [1]): 3.3
- Ki [2]: 626 nM
- Ki [3]: 188 nM
- Ki [4]: 1380 nM
- Ratio Ki (PC-12 [5]): 2.2

Compound: O[C@@H]1CCCC[C@H]1N1CCC(O)(c2ccccc2)CC1 (racemic)
- Ratio Ki (PC-12 [1]): 0.4
- Ki [2]: 454 nM
- Ki [3]: 1000 nM
- Ki [4]: 1990 nM
- Ratio Ki (PC-12 [5]): 1.9

Compound: CC(=O)C1(c2ccccc2)CCN([C@@H]2CCCC[C@H]2O)CC1 (racemic)
- Ratio Ki (PC-12 [1]): < 0.1
- Ki [2]: 22.5 nM
- Ki [3]: 1460 nM
- Ki [4]: 164 nM
- Ratio Ki (PC-12 [5]): 0.1

Compound: O[C@@H]1CCCC[C@H]1N1CCC(c2ccccc2)(c2ccccc2)CC1 (racemic)
- Ratio Ki (PC-12 [1]): < 0.1
- Ki [2]: 43.2 nM
- Ki [3]: 6710 nM
- Ki [4]: 1830 nM
- Ratio Ki (PC-12 [5]): 0.3

Compound: O[C@@H]1CCCC[C@H]1N1CCC(Cc2ccccc2)CC1 (racemic)
- Ratio Ki (PC-12 [1]): < 0.1
- Ki [2]: 20.1 nM
- Ki [3]: 647 nM
- Ki [4]: 108 nM
- Ratio Ki (PC-12 [5]): 0.2

Compound: O[C@@H]1CC[C@@H](OCc2ccc(F)cc2)C[C@H]1N1CCC(c2ccccc2)CC1 (racemic)
- Ratio Ki (PC-12 [1]): 0.7
- Ki [2]: 16.6 nM
- Ki [3]: 25.1 nM
- Ki [4]: 53.1 nM
- Ratio Ki (PC-12 [5]): 2.1

Compound: O[C@@H]1CC[C@@H](OCc2ccc(F)cc2)C[C@H]1N1CCN(c2ccccc2)CC1 (racemic)
- Ratio Ki (PC-12 [1]): 0.2
- Ki [2]: 103 nM
- Ki [3]: 697 nM
- Ki [4]: 167 nM
- Ratio Ki (PC-12 [5]): 0.24

Compound: O[C@@H]1CC[C@@H](OCc2ccc(F)cc2)C[C@H]1N1CC=C(c2ccccc2)CC1 (racemic)
- Ratio Ki (PC-12 [1]): < 0.1
- Ki [2]: 29.9 nM
- Ki [3]: 310 nM
- Ki [4]: 46.9 nM
- Ratio Ki (PC-12 [5]): 0.2

Compound: O[C@@H]1CCCC[C@H]1N1CCN(c2ccccc2)CC1 (racemic)
- Ratio Ki (PC-12 [1]): 0.1
- Ki [2]: 83.9 nM
- Ki [3]: 838 nM
- Ki [4]: 695 nM
- Ratio Ki (PC-12 [5]): 0.8

Compound: O[C@@H]1CCCC[C@H]1N1CC=C(c2ccccc2)CC1 (racemic)
- Ratio Ki (PC-12 [1]): < 0.1
- Ki [2]: 9.7 nM
- Ki [3]: 439 nM
- Ki [4]: 158 nM
- Ratio Ki (PC-12 [5]): 0.4

Compound: O=C(c1ccc(F)cc1)C1CCN([C@@H]2Cc3ccccc3C[C@H]2O)CC1 (racemic)
- Ki [6]: 2.7 nM
- Ratio Ki (PC-12 [1]): 8.8
- Ki [2]: 215 nM
- Ki [3]: 24.4 nM
- Ki [4]: 284 nM
- Ratio Ki (PC-12 [5]): 1.6

Compound: Nc1cccc2c1C[C@@H](N1CCC(c3ccccc3)CC1)[C@H](O)C2 (racemic)
- Ki [6]: 0.013 nM
- Ratio Ki (PC-12 [1]): 4.7
- Ki [2]: 119 nM
- Ki [3]: 25.1 nM
- Ki [4]: 474 nM
- Ratio Ki (PC-12 [5]): 18.9

Source: ChEMBL document CHEMBL3588818 (Eur J Med Chem, 2015)
